Assay [1] addresses T1, DPP-4 (Homo sapiens, UniProt P27487).
T1 construct: purchased Sigma-Aldrich Co., St. Louis, MO, USA
Kind of assay: DPP-4 inhibitory activity (Gly-Pro-p-nitroanilide substrate). Format: biochemical. The settings on record: for IC50: 25 μl sample + 25 μl Gly-Pro-p-nitroanilide (3.2 mM), preincubated 37 °C 10 min, 50 μl DPP-4 (0.02 U/ml), 60 min, 100 mM tris buffer (pH 7.6), absorbance at 405 nm. On the procedure:
Determination of DPP-4 inhibitory activity
The DPP-4 inhibitory activity of the synthesized peptides was determined as previously described, with slight modifications. Briefly, 25 μl of the sample and 25 μl of Gly-Pro-p-nitroanilide (3.2 mM) were preincubated at 37 °C for 10 min before 50 μl of DPP-4 (0.02 U/ml) was added to the mixture (Sigma-Aldrich Co., St. Louis, MO, USA). After 60 min, the reaction was halted by adding 100 μl of 1 M sodium acetate solution. The absorbance at 405 nm was measured using a microplate reader (Thermo Fisher Scientific, Waltham, MA, USA). DPP-4 inhibition (DI) was calculated as follows: DI%=1−Asample−Asample blank/Apositive−Anegative×100% (5) where A(sample) represents the optical density of DPP-4 in the presence of both the substrate and peptide. A(sample blank) represents the optical density of the 100 mM tris buffer (pH 7.6). A(positive) represents the optical density of the enzyme and substrate in the absence of an inhibitor. A(negative) represents the optical density of the enzyme in the absence of substrate and inhibitor.

The target of assay [2] is T1, DPP-4. The settings on record: methodologies differ among studies; cited from earlier work.

Like-named read-outs stand apart in the source and are kept apart here. No end group written: not given here.

T1 sequence (P27487 whole entry, species assumed): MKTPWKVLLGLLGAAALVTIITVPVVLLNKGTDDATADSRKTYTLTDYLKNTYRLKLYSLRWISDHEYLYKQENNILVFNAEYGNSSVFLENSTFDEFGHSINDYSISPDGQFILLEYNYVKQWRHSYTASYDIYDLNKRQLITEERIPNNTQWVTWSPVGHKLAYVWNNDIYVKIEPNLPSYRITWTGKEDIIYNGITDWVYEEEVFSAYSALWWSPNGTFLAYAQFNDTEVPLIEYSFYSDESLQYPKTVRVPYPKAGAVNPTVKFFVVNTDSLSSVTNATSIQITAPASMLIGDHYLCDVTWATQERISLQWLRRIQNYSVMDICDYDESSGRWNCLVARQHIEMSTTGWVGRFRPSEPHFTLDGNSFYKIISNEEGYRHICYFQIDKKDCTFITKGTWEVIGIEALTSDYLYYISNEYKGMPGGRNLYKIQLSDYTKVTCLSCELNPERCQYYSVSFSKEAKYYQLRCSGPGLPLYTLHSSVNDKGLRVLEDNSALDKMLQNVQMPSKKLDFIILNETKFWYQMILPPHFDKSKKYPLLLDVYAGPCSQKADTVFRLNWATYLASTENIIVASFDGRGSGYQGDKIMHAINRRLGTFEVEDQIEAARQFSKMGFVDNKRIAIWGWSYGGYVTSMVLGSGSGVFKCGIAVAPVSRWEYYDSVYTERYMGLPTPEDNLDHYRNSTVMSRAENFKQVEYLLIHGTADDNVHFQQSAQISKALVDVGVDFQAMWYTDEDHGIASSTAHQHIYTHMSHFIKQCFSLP

In the case of GPVRGPF [GPVRGPF], the half-inhibitory concentration (IC50) in assay [1] was found to be 645 µM.

Take HPHPHL [HPHPHL]: the half-inhibitory concentration (IC50) in assay [1] stood at 1610 µM.

As for “FVAPFPEV [peptide from α-S1-casein, pepsin (pH 1.3), pepsin (pH > 2); synthesized]”, in assay [1] (in vitro), the “DPP-4 inhibitory effect (in words)” value is “poor inhibitory effect”.

In the case of “TPEVDDEALEK [peptide from previous study [6]]”, the half-inhibitory concentration (IC50) in assay [2] was 320 µM.

One may read the IC50 as the point on the concentration scale where inhibition reaches its midpoint.

The record behind these values is article PMC11182572, “Mining Bovine Milk Proteins for DPP-4 Inhibitory Peptides Using Machine Learning and Virtual Proteolysis” (Research, 2024).
